# Experimental data published in PMC7367369, “A small library of chalcones induce liver cancer cell death through Akt phosphorylation inhibition” (Scientific Reports, 2020).
# Structures can show the parent of a compound that is named as a salt. Where two headings read alike, the source gives them in different places.
# Legend:
# Assay type in all cases: cell-based, human
# SNU475 = test: NCI-60 sulforhodamine B (SRB) cytotoxicity assay, SNU475; conditions: read-out: IC50 SNU475
# Protocol: (§1) The bioactivities of the synthesized chalcones were assessed on human liver cancer cell lines and on DPSCs with NCI-SRB assay in vitro. DPSCs used to asses the bioactivity of chalcones on untransformed control cells with the potential of hepatic lineage. […] We also included 5-Fluorouracil which is used in clinics for gastrointestinal cancers and Sorafenib. All results were normalized to DMSO negative control measurements. The experiment was performed in triplicate.
# (§2) Well differentiated human primary liver cancer cell lines Huh7, HepG2 and Hep3B, and poorly differentiated Mahlavu, FOCUS and SNU475 HCC cells were cultured in Dulbecco’s Modified Eagle’s Standard (DMEM) medium supplemented with 10% Fetal Bovine Serum (FBS), 100 units/mL penicillin and 100 µg/mL streptomycin (Gibco, Invitrogen, Carlsbad, CA, USA). 0.1 mM nonessential amino acids (NEAA) which are specific to HCC cell lines also added to culture media. Cells were cultured in a 5% CO2 incubator at 37^∘C
# (§3) Primary liver cancer cells Huh7, HepG2, Hep3B, Mahlavu, FOCUS, Snu475 along with hepatic progenitor Dental pulp stem cells were seeded into 96-well plates (1,000–3,000 HCC cell/well and 10,000 cells DPSC/well ) for 24 h. The cells were then treated with increasing concentrations of the chalcones ( 2.5-40μM ). DMSO (AppliChem Biochemica, Darmstadt, Germany) was used as negative control. The growth has stopped at the end of 72 h by fixing cold with 10% (v/v) trichloroacetic acid (Merck, Schuchardt, Germany). Cells were then stained with 0.4% (m/v) of sulforhodamine (Sigma-Aldrich, St. Louis, USA) in 1% acetic acid solution. […] All experiments were done in triplicate.
# [1] = system: dental pulp stem cells (DPSC); test: NCI-60 sulforhodamine B (SRB) cytotoxicity assay, dental pulp stem cells; conditions: 72 h, read-out: IC50 DPSC
# Protocol: as §1
# Dental pulp stem cells (DPSCs) were isolated from anonymised unidentified healthy intact wisdom tooth. DPSCs were isolated within few hours upon wisdom teeth surgery from patients above 18 years old. All were informed about the procedures, and their consents were obtained. Teeth were broken carefully in order to reach the dental pulp area. […] Then, the cells were seeded onto flasks in 10ml DMEM-F12 media (Lonza) supplemented with 1% penicillin/streptomycin solution (Hyclone) and 15% FBS (Fetal Bovine Serum,Hyclone, Logan, UT, USA) and cultured in a 5% CO2 incubator at 37^∘C .
# as §3
# HepG2 = test: NCI-60 sulforhodamine B (SRB) cytotoxicity assay, HepG2; conditions: read-out: IC50 HepG2
# Protocol: as §1, §2, §3
# Mahlavu = test: NCI-60 sulforhodamine B (SRB) cytotoxicity assay, Mahlavu; conditions: 72 h, read-out: IC50 Mahlavu
# Protocol: as §1, §2, §3
# Huh7 = test: NCI-60 sulforhodamine B (SRB) cytotoxicity assay, Huh7; conditions: read-out: IC50 Huh7
# Protocol: as §1, §2
# Primary liver cancer cells Huh7, HepG2, Hep3B, Mahlavu, FOCUS, Snu475 along with hepatic progenitor Dental pulp stem cells were seeded into 96-well plates (1,000–3,000 HCC cell/well and 10,000 cells DPSC/well ) for 24 h. The cells were then treated with increasing concentrations of the chalcones ( 2.5-40μM ). DMSO (AppliChem Biochemica, Darmstadt, Germany) was used as negative control. The growth has stopped at the end of 72 h by fixing cold with 10% (v/v) trichloroacetic acid (Merck, Schuchardt, Germany). Cells were then stained with 0.4% (m/v) of sulforhodamine (Sigma-Aldrich, St. Louis, USA) in 1% acetic acid solution. The absorbency values were acquired at 515 nm. All experiments were done in triplicate.
# FOCUS = test: NCI-60 sulforhodamine B (SRB) cytotoxicity assay, FOCUS; conditions: 72 h, read-out: IC50 FOCUS
# Protocol: as §1, §2, §3
# Hep3B = test: NCI-60 sulforhodamine B (SRB) cytotoxicity assay, Hep3B; conditions: 72 h, read-out: IC50 Hep3B
# Protocol: as §1, §2, §3
# [2] = Homo sapiens, SNU-475, SRB, 72 h, 2.5–40 μM, triplicate
# [3] = Homo sapiens, SRB, 2.5–40 μM, triplicate, untransformed control cells
# [4] = Homo sapiens, HepG2, SRB, 72 h, 2.5–40 μM, triplicate
# [5] = Homo sapiens, Mahlavu, SRB, 2.5–40 μM, triplicate
# [6] = Homo sapiens, Huh-7, SRB, 72 h, 2.5–40 μM, triplicate
# [7] = Homo sapiens, SRB, 2.5–40 μM, triplicate
# [8] = Homo sapiens, Hep3B, SRB, 2.5–40 μM, triplicate
# [9] = SRB, 72 h, 2.5–40 μM, triplicate
Compound,IC50 (SNU475; [2]) [µM],"IC50 [1, 3] [µM]",IC50 (HepG2; [4]) [µM],IC50 (Mahlavu; [5]) [µM],IC50 (Huh7; [6]) [µM],IC50 (FOCUS; [7]) [µM],IC50 (Hep3B; [8]) [µM],further results
COc1ccc(/C=C/C(=O)c2ccc(OC)cc2)cc1 [compound 8],21.6,> 40,26,17.3,17.9,21.5,22.1,
"Oc1cc(O)c2c(c1)O[C@H](c1ccc(O)c(O)c1)[C@@H](O)C2 [Catechin hydrate, reference compound]",,,,,,,,"IC50 (SNU475; [9]): > 40 µM; IC50 ([1]; SRB, 2.5–40 μM, triplicate, untransformed control cells): > 40 µM; IC50 (HepG2; [9]): > 40 µM; IC50 (Mahlavu; SRB, 2.5–40 μM, triplicate): > 40 µM; IC50 (Huh7; [9]): > 40 µM; IC50 (FOCUS; SRB, 2.5–40 μM, triplicate): > 40 µM; IC50 (Hep3B; SRB, 2.5–40 μM, triplicate): > 40 µM"
"COc1ccc(Cc2nccc3cc(OC)c(OC)cc23)cc1OC [Papaverine hydrochloride, reference compound]",17.8,> 40,4.9,> 40,,1.7,20.4,"IC50 (Huh7; Homo sapiens, Huh-7, 72 h): 8.5 µM"
"O=c1[nH]cc(F)c(=O)[nH]1 [5-Fluorouracil, reference compound]",,23.7,5,10,30.7,7.7,15.2,
COc1ccc(/C=C/C(=O)c2cccc([N+](=O)[O-])c2)cc1 [compound 7],> 40,> 40,> 40,31.1,> 40,> 40,> 40,
COc1ccc(C(=O)/C=C/c2ccc(Cl)cc2)cc1 [compound 10],20,> 40,13.9,14.6,11.9,15.9,16.5,
COc1ccc(/C=C/C(=O)c2ccccc2)cc1 [compound 6],,,,,,,,"IC50 (SNU475; Homo sapiens, SNU-475, 72 h): 10 µM; IC50 ([1]; Homo sapiens): > 40 µM; IC50 (HepG2; Homo sapiens, HepG2, 72 h): 7.6 µM; IC50 (Mahlavu; Homo sapiens, Mahlavu): 6.3 µM; IC50 (Huh7; Homo sapiens, Huh-7, 72 h): 6.4 µM; IC50 (FOCUS; Homo sapiens): 6.5 µM; IC50 (Hep3B; Homo sapiens, Hep3B): 7.8 µM"
O=C(/C=C/c1cccc([N+](=O)[O-])c1)c1ccccc1 [compound 4],23.8,> 40,> 40,24.8,> 40,> 40,> 40,
"O=c1c(O)c(-c2ccc(O)c(O)c2)oc2cc(O)cc(O)c12 [Quercetin, reference compound]",11.6,21.2,8.4,11.3,12.5,17.9,21.8,
COc1ccc(C(=O)/C=C/c2ccccc2)cc1 [compound 3],13.1,> 40,7.6,9.4,6.4,20,18,
"CNC(=O)c1cc(Oc2ccc(NC(=O)Nc3ccc(Cl)c(C(F)(F)F)c3)cc2)ccn1 [Sorafenib, reference compound]",7.5,7.1,5.6,7.9,,,,"IC50 (Huh7; Homo sapiens, Huh-7, 72 h): 1.3 µM"
